From patent US9573970B2, “4-{4-[(1E)-4-(2,9-diazaspiro[5.5]undec-2-yl)but-1-en-1-yl]-2-methylbenzyl}-5-(propan-2-yl)-1H-pyrazol-3-yl beta-D glucopyranoside acetate” (Eli Lilly and Company, priority 2013, dated 2017)

Test system: male rats with STZ-induced diabetes
Assay: Mixed meal tolerance test (MTT) in male rats with streptozotocin induced diabetes
Type: in vivo, rat
Conditions: 60 mg/kg oral, mean ± SE
Description: The test compound is formulated by adding a vehicle of 1% hydroxyethylcellulose (HEC), 0.25% Tween® 80 w/antifoam 0.05% to preweighed test compound to make a 2.5 mg/ml solution. The mixture is probe sonicated for approximately 30 seconds. The resulting solution is used as a stock solution, from which the lower concentration dose solutions are prepared by dilution with the vehicle. STZ, 45 mg/kg, is formulated by dissolving in 0.1M Citrate buffer in 3 ml aliquots and stored in the dark on ice, when not being administered. A high fat content mixed meal (Bio-Serv® Rodent Diet F3282 High Fat) comprising Fat Calories (60%), Carbohydrate Calories (26%) and Protein Calories (15%) is utilized. Single housed Sprague Dawley rats are allowed to acclimate for a period of 3 to 7 days.
In an effort to ensure that the animals have not recently fed, STZ is administered in the afternoon, approximately six hours into the light cycle (lights on 6 am, lights off 6 pm). The animals are anesthetized with isoflurane and STZ is delivered via tail vein injection. Once animals regain consciousness, they are returned to housing and allowed to recover for 7 days.
On the two days immediately prior to the meal tolerance test (MTT) all rats are given a small amount (2-4 g) of the F3282 diet, so they became acclimated to it prior to receiving it during the experiment. On the evening before the experiment, the rats are moved into clean cages and their food is removed. The following morning animals are weighed and a blood sample is taken by tail snip for glucose measurement (Abbott AlphaTRAK™ glucometers: code 29) Animals are grouped n=6 based on fasted body weight and glucose. Thirty minutes after the test compound is orally administered, two glucose measurements are collected. Then a five gram pellet of Bio-Serv® diet 3282 is given. After 20 minutes remaining food is taken away and weighed. Blood samples are taken at 20, 40, 60 and 120 minutes for glucose measurement.

C[C@H]1O[C@H](O[C@H]2[C@H](O)[C@@H](O)[C@@H](O[C@H]3[C@H](O)[C@@H](O)C(O)O[C@@H]3CO)O[C@@H]2CO)[C@H](O)[C@@H](O)[C@@H]1N[C@H]1C=C(CO)[C@@H](O)[C@H](O)[C@H]1O (stereo partly drawn) [Acarbose, reference compound]
Glucose value, 0 min. (30 min after compound, before meal): 124 ± 16.9 mg/dL | Baseline Adjusted AUC (glucose) (MTT): 23877 ± 4649 | Glucose value, 20 min.: 181 ± 22.8 mg/dL | Glucose value, 40 min.: 301.3 ± 51.2 mg/dL | Glucose value, 60 min.: 371.5 ± 63.9 mg/dL | Glucose value, 120 min.: 433.7 ± 83 mg/dL
